Experiments:
[1] = tested on: Human immunodeficiency virus 1; assay: Antiviral activity against HIV1; assay type: functional, organism-based
[2] = tested on: Human immunodeficiency virus; assay: Activity against HIV-AB1 assessed by inhibition of p24 production in human lymphocytes; assay type: functional, organism-based; conditions: Human immunodeficiency virus 1
[3] = tested on: Human immunodeficiency virus; assay: Activity against HIV-112 assessed by inhibition of p24 production in human lymphocytes; assay type: functional, organism-based; conditions: Human immunodeficiency virus 1
[4] = tested on: Human immunodeficiency virus 1; assay: Activity against HIV1 3B assessed by inhibition of p24 production in human lymphocytes; assay type: functional, organism-based; conditions: Human immunodeficiency virus 1, 3B
Lymphocyte [5] = assay: Cytotoxicity against human lymphocytes; assay type: functional; conditions: read-out: TC50 (the source's name)
[6] = tested on: Human immunodeficiency virus 1; assay: Antiviral activity against HIV1 3B in MT4 cell line; assay type: functional, organism-based; conditions: Human immunodeficiency virus 1, 3B
[7] = tested on: Human immunodeficiency virus 1; assay: Antiviral activity against HIV1 K103N-Y181C mutant in MT4 cell line; assay type: functional, organism-based; conditions: Human immunodeficiency virus 1, MT4
[8] = tested on: Human immunodeficiency virus 1; assay: Antiviral activity against HIV1 Y181C mutant in MT4 cell line; assay type: functional, organism-based; conditions: Human immunodeficiency virus 1, MT4
MT4 [9] = assay: Selectivity index, TC50 for MT4 cell line/EC50 for HIV1; assay type: functional
C8166 [10] = assay: Selectivity index, TC50 for C8166 cell line/EC50 for HIV1; assay type: functional
MT4 [11] = assay: Cytotoxicity against MT4 cell line by MTT assay; assay type: functional; conditions: Homo sapiens, read-out: TC50 (the source's name)
[12] = tested on: Human immunodeficiency virus 1; assay: Antiviral activity against HIV1 in MT4 cell line; assay type: functional, organism-based; conditions: Human immunodeficiency virus 1, MT4; read-out: EC50
C8166 [13] = assay: Antiproliferative activity against C8166 cell line by MTT assay; assay type: functional; conditions: Homo sapiens, read-out: TC50 (the source's name)
[14] = tested on: Human immunodeficiency virus 1; assay: Antiviral activity against HIV1 in C8166 cell line; assay type: functional, organism-based; conditions: Human immunodeficiency virus 1, C8166
Lymphocyte [15] = assay: Selectivity index, TC50 for human lymphocytes/EC50 for HIV1 3B; assay type: functional

SMILES | EC50 [1] [nM] | other results
Cc1cc(C)cc(S(=O)(=O)c2c(C(=O)NN)[nH]c3ccc(Cl)cc23)c1 | 130 | –
Nc1cc(Cl)ccc1-n1ccc2ccccc21 | 4130 | –
Cc1cc(C)cc(S(=O)(=O)c2c(C(=O)NCCO)[nH]c3ccc(Cl)cc23)c1 | 0.8 | –
O=C1Nc2ccc(Cl)cc2[C@@](C#CC2CC2)(C(F)(F)F)O1 [EFAVIRENZ] | – | EC50 [2]: > 20000 nM; EC50 [3]: > 20000 nM; EC50 [4]: 7 nM; CC50 (Lymphocyte [5]): > 100000 nM
Cc1ccccc1S(=O)(=O)c1c(C(=O)NCCO)[nH]c2ccc(Cl)cc12 | 31 | –
CCOC(=O)c1cc2cc(Cl)ccc2n1S(=O)(=O)c1ccc(C)cc1 | > 200000 | –
Cc1cccc(Sc2c(C(=O)NCCO)[nH]c3ccc(Cl)cc23)c1 | 80 | –
Cc1ccccc1Sc1c(C(N)=O)[nH]c2ccc(Cl)cc12 | 300 | –
CCOC(=O)c1cn(S(=O)(=O)c2ccccc2)c2ccc(Cl)cc12 | > 42000 | –
CC(C)(C)c1ccc(Sc2c(C(N)=O)[nH]c3ccc(Cl)cc23)cc1 | 8000 | –
Cc1ccc(S(=O)(=O)c2c(C(=O)NN)[nH]c3ccc(Cl)cc23)cc1 | 50 | –
Cc1cc(C)cc(S(=O)(=O)c2c(C(=O)NCC(N)=O)[nH]c3ccc(Cl)cc23)c1 | – | EC50 [6]: 10 nM; EC50 [7]: 1200 nM; EC50 [8]: 50 nM; Selectivity index (MT4 [9]): 4500; Selectivity index (C8166 [10]): >5000; CC50 (MT4 [11]): 45000 nM; EC50 [12]: 10 nM; CC50 (C8166 [13]): > 100000 nM; EC50 [14]: 20 nM
CCOC(=O)c1[nH]c2ccccc2c1Sc1ccccc1N | > 200000 | –
Cc1ccc(Sc2c(C(=O)NCCO)[nH]c3ccc(Cl)cc23)cc1 | 120 | –
Cc1ccc(S(=O)(=O)c2c(C(N)=O)[nH]c3ccc(Cl)cc23)c(C)c1 | 4 | –
Nc1ccccc1-n1ccc2ccccc21 | 4960 | –
Cc1cc(C)cc(S(=O)(=O)c2c(C(N)=O)[nH]c3ccc(Cl)cc23)c1 | 4 | –
O=[N+]([O-])c1ccc(Cl)cc1-n1ccc2ccccc21 | 5400 | –
NC(=O)c1[nH]c2ccc(Cl)cc2c1Sc1ccccc1 | 20 | –
Cc1ccc(S(=O)(=O)c2c(C(=O)NCCO)[nH]c3ccc(Cl)cc23)c(C)c1 | 8 | –
NNC(=O)c1[nH]c2ccc(Cl)cc2c1Sc1ccccc1 | 550 | –
CCOC(=O)c1cc2cc(Cl)ccc2n1S(=O)(=O)c1ccc(Cl)cc1 | > 200000 | –
Cc1cc(C)cc(Sc2c(C(=O)NCCO)[nH]c3ccc(Cl)cc23)c1 | 12 | –
CCOC(=O)c1cc2cc(Cl)ccc2n1S(=O)(=O)c1cc(Cl)ccc1N | 8300 | –
NC(=O)c1[nH]c2ccc(Cl)cc2c1S(=O)(=O)c1ccccc1 [L-737126] | 1 | –
Cc1ccnc2c1NC(=O)c1cccnc1N2C1CC1 [NEVIRAPINE] | – | EC50 [6]: 370 nM; EC50 [2]: > 20000 nM; EC50 [3]: > 20000 nM; EC50 [4]: 90 nM; CC50 (Lymphocyte [5]): > 100000 nM; Selectivity index (Lymphocyte [15]): >1111
Cc1ccccc1Sc1c(C(=O)NCCO)[nH]c2ccc(Cl)cc12 | 50 | –
O=C(NNCCO)c1[nH]c2ccc(Cl)cc2c1Sc1ccccc1 | 200 | –

Further lines, with some results ahead:

EC50 [1] [nM] | SMILES | other results
1 | Cc1cc(C)cc(S(=O)(=O)c2c(C(=O)NNCCO)[nH]c3ccc(Cl)cc23)c1 | –
3 | Cc1ccc(S(=O)(=O)c2c(C(N)=O)[nH]c3ccc(Cl)cc23)cc1 | –
6 | Cc1cc(C)cc(Sc2c(C(N)=O)[nH]c3ccc(Cl)cc23)c1 | –
100 | Cc1ccccc1Sc1c(C(=O)NNCCO)[nH]c2ccc(Cl)cc12 | –
2 | Cc1cc(C)cc(S(=O)(=O)c2c(C(N)=O)[nH]c3ccc(Br)cc23)c1 | –
> 200000 | CCOC(=O)c1cc2cc(Cl)ccc2n1S(=O)(=O)c1ccccc1 | –
180 | NC(=O)c1[nH]c2ccccc2c1S(=O)(=O)c1ccccc1 | –
> 200000 | NNC(=O)c1cc2ccccc2n1S(=O)(=O)c1ccccc1 | –
10000 | NNC(=O)c1[nH]c2ccc(Cl)cc2c1Sc1ccc(Cl)cc1 | –
30 | Cc1cc(C)cc(Sc2c(C(=O)NNCCO)[nH]c3ccc(Cl)cc23)c1 | –
1 | Cc1cccc(S(=O)(=O)c2c(C(N)=O)[nH]c3ccc(Cl)cc23)c1 | –
530 | NNC(=O)c1[nH]c2ccccc2c1S(=O)(=O)c1ccccc1 | –
80 | CC(C)c1ccc(S(=O)(=O)c2c(C(N)=O)[nH]c3ccc(Cl)cc23)cc1 | –
> 100000 | CCOC(=O)c1cc2ccccc2n1S(=O)(=O)c1cc(Cl)ccc1[N+](=O)[O-] | –
> 450 | Cc1ccc(Sc2c(C(N)=O)[nH]c3ccc(Cl)cc23)cc1 | –
